Measured values reported in patent US9102648B1, “Bioavailable diacylhydrazine ligands for modulating the expression of exogenous genes via an ecdysone receptor complex” (Intrexon Corporation, priority 2003, dated 2015).
Like-named read-outs stand apart in the source and are kept apart here.

Biological target: GAL4 DBD (1-147)-CfEcR(DEF)/VP16AD-βRXREF-LmUSPEF (Choristoneura fumiferana, UniProt O77240)
Test: cell-based
Conditions: for Fold Induction, 27-63 Assay, 3.3 uM: 3.3 uM ligand; for Fold Induction, 27-63 Assay, 3.3 uM / Fold Induction, 27-63 Assay, 33 uM: RLU ligand treated / RLU DMSO treated cells; for Fold Induction, 27-63 Assay, 33 uM: 33 uM ligand; for 27-63 assay Rel Max FI: maximum fold induction at any concentration relative to that of GS-E ligand, CHO 27-63 cells; for fold induction at 33 µM: read-out: Fold Induction, 27-63 Assay, 33 uM
From the text: GAL4 DBD (1-147)-CfEcR(DEF)/VP16AD-βRXREF-LmUSPEF:
The wild-type D, E, and F domains from spruce budworm Choristoneura fumiferana EcR (“CfEcR-DEF”; SEQ ID NO: 1) were fused to a GAL4 DNA binding domain (“Gal4DBD1-147”; SEQ ID NO: 2) and placed under the control of a phosphoglycerate kinase promoter (“PGK”; SEQ ID NO: 3). Helices 1 through 8 of the EF domains from Homo sapiens RXRβ (“HsRXRβ-EF”; nucleotides 1-465 of SEQ ID NO: 4) and helices 9 through 12 of the EF domains of Locusta migratoria Ultraspiracle Protein (“LmUSP-EF”; nucleotides 403-630 of SEQ ID NO: 5) were fused to the transactivation domain from VP16 (“VP16AD”; SEQ ID NO: 6) and placed under the control of an elongation factor-1α promoter (“EF-1α”; SEQ ID NO: 7). Five consensus GAL4 response element binding sites (“5XGAL4RE”; comprising 5 copies of a GAL4RE comprising SEQ ID NO: 8) were fused to a synthetic TATA minimal promoter (SEQ ID NO: 9) and placed upstream of the luciferase reporter gene (SEQ ID NO: 10).
CHO cells were transiently transfected with transcription cassettes for GAL4 DBD (1-147) CJEcR(DEF) and for VP16AD βRXREF-LmUSPEF controlled by ubiquitously active cellular promoters (PGK and EF-la, respectively) on a single plasmid. Stably transfected cells were selected by Zeocin resistance. Individually isolated CHO cell clones were transiently transfected with a GAL4 RE-luciferase reporter (pFR Luc). 27-63 clone was selected using Hygromycin.
Cells were trypsinized and diluted to a concentration of 2.5×10^4 cells mL. 100 μL of cell suspension was placed in each well of a 96 well plate and incubated at 37° C. under 5% CO2 for 24 h. Ligand stock solutions were prepared in DMSO and diluted 300 fold for all treatments. Dose response testing consisted of 8 concentrations ranging from […] to 0.01 μM.
Luciferase reporter gene expression was measured 48 h after cell treatment using Bright-Glo™ Luciferase Assay System from Promega (E2650). Luminescence was detected at room temperature using a Dynex MLX microtiter plate luminometer.
Each assay was conducted in two separate wells, and the two values were averaged. Fold inductions were calculated by dividing relative light units (“RLU”) in ligand treated cells with RLU in DMSO treated cells. EC50s were calculated from dose response data using a three-parameter logistic model.

[1] = read-out: 27-63 assay EC50, CHO 27-63 stable cell line, luciferase reporter, average of two wells

SMILES | Fold Induction, 27-63 Assay, 3.3 uM (average of two wells) | Fold Induction, 27-63 Assay, 33 uM (average of two wells) | 27-63 assay Rel Max FI | EC50 [1] [nM] | EC50 [nM] | fold induction at 33 µM
COc1cccc(C(=O)NN(C(=O)c2ccc(C(F)(F)F)n(C)c2=O)C(C)(C)C)c1C [RG-115835] | 3 | 1895 | 0.731 | 20000 | – | –
CCc1ccc(C(=O)NN(C(=O)c2cc(C)cc(C)c2)C(CC)C(C)(C)C)cc1 (stereo not drawn) [RG-115836] | 1822 | 823 | 0.808 | 98 | – | –
CCc1ccc(C(=O)NN(C(=O)c2cccnc2OC)C(CC)C(C)(C)C)cc1 (stereo not drawn) [RG-115837] | 1474 | 1156 | 0.569 | 1110 | – | –
CCCCC(N(NC(=O)c1ccc(CC)cc1)C(=O)c1cc(C)cc(C)c1)C(C)(C)C (stereo not drawn) [RG-115840] | 1612 | 263 | 0.776 | 110 | – | –
CCCCC(N(NC(=O)c1ccc(CC)cc1)C(=O)c1cc(OC)c(C)c(OC)c1)C(C)(C)C (stereo not drawn) [RG-115841] | 1407 | 437 | 0.610 | 2020 | – | –
CCCCC(N(NC(=O)c1ccc(CC)cc1)C(=O)c1cccnc1OC)C(C)(C)C (stereo not drawn) [RG-115842] | 1269 | 447 | 0.524 | 1200 | – | –
CCc1ccc(C(=O)NN(C(=O)c2cc(C)cc(C)c2)C(c2ccccc2)C(C)(C)C)cc1 (stereo not drawn) [RG-115846] | 1643 | 645 | 0.846 | 95 | – | –
CCc1ccc(C(=O)NN(C(=O)c2cccnc2OC)C(c2ccccc2)C(C)(C)C)cc1 (stereo not drawn) [RG-115848] | 1346 | 1156 | 0.494 | 1290 | – | –
COc1cc(C(=O)N(NC(=O)c2cccc(OC)c2C)C(C)(C)C)nc(OC)n1 [RG-115849] | 1 | 231 | 0.007 | > 33000 | – | –
COc1cc(C(=O)N(NC(=O)c2cccc(OC)c2C)C(C)(C)C)c(OC)nn1 [RG-115850] | 1 | 23 | 0.001 | > 33000 | – | –
CCCCC(N(NC(=O)c1cccc(OC)c1C)C(=O)c1cc(C)cc(C)c1)C(C)(C)C (stereo not drawn) [RG-115851, 3,5-dimethyl-benzoic acid N-(1-tert-butyl-pentyl)-N′-(3-methoxy-2-methyl-benzoyl)-hydrazide] | – | – | 1 | – | 20 | –
CCCCC(N(NC(=O)c1cccc(OC)c1C)C(=O)c1cc(OC)c(C)c(OC)c1)C(C)(C)C (stereo not drawn) [RG-115852, 3,5-dimethoxy-4-methyl-benzoic acid N-(1-tert-butyl-pentyl)-N′-(3-methoxy-2-methyl-benzoyl)-hydrazide] | – | – | 1 | – | 70 | –
CCc1c(C(=O)NN(C(=O)c2cc(OC)c(C)c(OC)c2)C(CC)C(C)(C)C)ccc2c1OCCO2 (stereo not drawn) [RG-115859, 3,5-Dimethoxy-4-methyl-benzoic acid N′-(5-ethyl-2,3-dihydro-benzo[1,4]dioxine-6-carbonyl)-N-(1-ethyl-2,2-dimethyl-propyl)-hydrazide] | – | – | 1.218 | – | 7 | 1060
COc1cccc(C(=O)NN(C(=O)c2cc(Cl)nnc2Cl)C(C)(C)C)c1C [RG-115861] | 8 | 593 | 0.215 | 4310 | – | –
COc1cccc(C(=O)NN(C(=O)c2ccnnc2)C(C)(C)C)c1C [RG-115862] | 1 | 243 | 0.048 | > 33000 | – | –
COc1cc(C(=O)N(NC(=O)c2cccc(OC)c2C)C(C)(C)C)c(=O)[nH]n1 [RG-115863] | 1 | 804 | 0.154 | > 33000 | – | –
CCCC(N(NC(=O)c1ccc2c(c1C)OCCO2)C(=O)c1cc(OC)c(C)c(OC)c1)C(C)(C)C (stereo not drawn) [RG-115865, 3,5-Dimethoxy-4-methyl-benzoic acid N-(1-tert-butyl-butyl)-N′-(5-methyl-2,3-dihydrobenzo[1,4]dioxine-6-carbonyl)-hydrazide] | – | – | 1.246 | – | 10 | 76
CCCC(N(NC(=O)c1ccc2c(c1CC)OCCO2)C(=O)c1cc(C)cc(C)c1)C(C)(C)C (stereo not drawn) [RG-115866, 3,5-Dimethyl-benzoic acid N-(1-tert-butyl-butyl)-N′-(5-ethyl-2,3-dihydro-benzo[1,4]dioxine-6-carbonyl)-hydrazide] | – | – | 0.999 | – | 10 | 3
CCCC(N(NC(=O)c1ccc2c(c1CC)OCCO2)C(=O)c1cc(OC)c(C)c(OC)c1)C(C)(C)C (stereo not drawn) [RG-115867, 3,5-Dimethoxy-4-methyl-benzoic acid N-(1-tert-butyl-butyl)-N′-(5-ethyl-2,3-dihydro-benzo[1,4]dioxine-6-carbonyl)-hydrazide] | – | – | – | – | – | 654
